Source: patent publication US7208479B2, “Peritoneal dialysis solution containing modified icodextrins” (Baxter International, Inc., priority 1998, dated 2007)

Columns and labels:
[1] = Stability under sterilization conditions: absorbance (284 nm) variation after sterilization (121° C. 45 min); type: physicochemical
Experimental: The products were tested for stability under sterilization conditions at neutral pH. A significant reduction of absorbance variation at 284 nm (Δ Abs) after sterilization is observed for the reduced compounds. The reduced compounds from Example 1 are listed as HMW1 red, HMW2 red and LMW red in Table 1.
Utilizing the three different samples of maltodextrins discussed above with respect to Example 1, oxidation reactions were carried out on each sample by dissolving 15 grams of maltodextrin in 30 ml of water and combining the starch solution with an effective amount of NaOCl in 70 ml of a solution containing sodium hydroxide and having a pH of 8±0.5 at a temperature of 43° C. The combined solutions were allowed to stand for approximately 2 hours and the product solution was purified by gel permeation chromatography. Again, the products were analyzed using ^13C NMR spectroscopy and were tested for stability under sterilization conditions as illustrated in Table 1. While the oxidation products, HMW1 ox HMW2 ox and LMW ox show contrasting results, this is attributed to the high molecular weight oxidized products not being completely purified.
The stability of one product shown in Table 3 was tested for stability under sterilization conditions and the observed variation at 284 nm is compared with that of glucose and methyl glycoside.

[2] = In vitro dialysis test predictive of dialytic efficiency: volume increase inside dialysis bag (Spectra Pore membrane, cut-off 500 Dalton); settings: 37° C.
Experimental: In an in vitro test predictive of the dialytic efficiency of the osmotic agents described above, small dialysis bags with Spectra Pore membrane with a cut-off 500 Dalton (diameter 15 mm, 15 cm high) were filled with 3 ml of water solutions at different concentrations (2.5, 5.0% w/v of the samples). The bags were immersed in 200 ml of distilled water and 37° C. while stirring the extra dialysis solution. At given times (0, 1, 2, 3, 4, 5, 6 hours), the increase in the volume inside the dialysis bag was evaluated by weight and expressed as a percentage increase compared to the starting volume (Δw %).

[3] = 2.5% solution at pH 7 (footnote *), sterilization 121° C. 45 min
[4] = Table 4, 2.5% (w/v), sterilization 121° C. 45 min
[5] = 2.5% w/v, listed as α-methly-gluc.
[6] = 2.5% w/v, listed as β-methly-gluc.

Row | ΔAbs (pH 6.5–7.5) [1, 3] | ΔAbs neutra (pH 6.5–7.5) [1, 4] | Molecule | Δw % 1 h ([2]; 2.5% w/v) [%] | Δw % 2 h ([2]; 2.5% w/v) [%] | Δw % 3 h ([2]; 2.5% w/v) [%] | Δw % 4 h ([2]; 2.5% w/v) [%] | Δw % 5 h ([2]; 2.5% w/v) [%] | Δw % 6 h ([2]; 2.5% w/v) [%] | Δw % 1 h ([2]; 5% w/v) [%] | Δw % 2 h ([2]; 5% w/v) [%] | Δw % 3 h ([2]; 5% w/v) [%] | Δw % 4 h ([2]; 5% w/v) [%] | Δw % 5 h ([2]; 5% w/v) [%] | Δw % 6 h ([2]; 5% w/v) [%] | also measured
1 | 0.01 | – | O=C1O[C@H](CO)[C@@H](O)[C@H](O)[C@H]1O [D(+)-Gluconolactone] | – | – | – | – | – | – | – | – | – | – | – | – | –
2 | 0.98 | 0.07 | O=C[C@H](O)[C@@H](O)[C@H](O)[C@H](O)CO [Glucose] | 15.3 | 34.2 | 43.4 | 57.3 | 74.2 | 90.9 | – | – | – | – | – | – | ΔAbs (pH 6.5–7.5) ([1]; 5% solution, after minus before sterilization 121° C. 45 min, pH 6.5–7.5): 2.54 ± 0.78; ΔAbs (pH 5.5) ([1]; 5% solution, sterilization 121° C. 45 min, pH 5.5): 2.36 ± 0.96; ΔAbs neutra (pH 6.5–7.5) ([1]; Table 4, 5% (w/v), sterilization 121° C. 45 min): 2.43 ± 0.9
3 | – | – | O=P(O)(O)O[C@H]1O[C@H](CO)[C@@H](O)[C@H](O)[C@H]1O [gluc.-1-phos., glucose-1-phosphate] | 35.8 | 53.6 | 76.3 | 95.9 | 120.1 | 144.1 | – | – | – | – | – | – | –
4 | – | – | COC1OC(CO)C(O)C(O)C1O (stereo not drawn) [α-methyl-gluc.] | – | – | – | – | – | – | 30.9 | 60.7 | 86.5 | 107.9 | 123.2 | 142.0 | Δw % 1 h [2, 5]: 21.8%; Δw % 2 h [2, 5]: 39.2%; Δw % 3 h [2, 5]: 55.4%; Δw % 4 h [2, 5]: 67.64%; Δw % 5 h [2, 5]: 79.5%; Δw % 6 h [2, 5]: 92.1%
5 | – | – | COC1OC(CO)C(O)C(O)C1O (stereo not drawn) [β-methyl-gluc.] | – | – | – | – | – | – | 45 | 76.1 | 103.0 | 129.7 | 151.7 | 174.9 | Δw % 1 h [2, 6]: 34.0%; Δw % 2 h [2, 6]: 50.3%; Δw % 3 h [2, 6]: 63.7%; Δw % 4 h [2, 6]: 67.6%; Δw % 5 h [2, 6]: 77.7%; Δw % 6 h [2, 6]: 86.5%
6 | – | 0.01 | Methyl glycoside | – | – | – | – | – | – | – | – | – | – | – | – | –
